Source: patent US7341991B2, “Inhibitors of amyloid precursor protein processing” (Posco, priority 2004, dated 2008)

Legend:
[1] = tested on: γ-secretase cleavage in KEK293 APP cells; experiment: Cell based γ-secretase assay (α-CTF, Western); parameters: species or system human; conditions: 9 hours treatment, α-CTF accumulation
Description: In order to test these peptides in the cell for their inhibitory effect on γ-secretase cleavage, a cell based assay was developed. After KEK293 APP cells were cultured in 6 well culture plates with 90% confluency, the cells were treated for 9 hours with N-[N-(3,5-difluorophenacetyl)-L-alanyl]-(S)-phenylglycine t-butyl ester (DAPT) (Dovey H F et al, J. Neurochemistry 2001; 76:173-181), which is a known γ-secretase inhibitor, and complementary peptides. The cells in each well were lysed and these lysates were separated with 15% tris-tricine gel. Western analysis was performed with R1 antibody as primary antibody and goat anti-rabbit-HRP as secondary antibody.

[2] = target: T1, Sub-ST6Gal1 (DYEALTLQAKEFQMPKSQE) (Rattus norvegicus, UniProt P13721); experiment: Binding of bio-Sub-ST6Gal1 to immobilized HC peptide; conditions: peptide coupled on microtiter plate
T1 construct: 19 amino acid region (DYEALTL/QAKEFQMPKSQE) that contains the β-cleavage site for investigation was chosen; purchased Peptron, Inc; host or cells: chemical synthesis
Description: Reacti-Bind™ maleic anhydride-activated polystyrene plate (Pierce, IL, USA) was coated with 50 μl of HC peptide (200 μM in distilled water) by chemical coupling for 3 h at room temperature (RT) and washed three times with phosphate buffered saline (PBS) containing 0.05% tween 20 (PBST). The plate was blocked with blocking buffer (0.5% gelatin in PBS) for 1 h at RT. After discarding blocking buffer, biotinylated BACE1 substrates (200 μM) in blocking buffer was applied on the plate and incubated for 2.5 h at RT. Each well was washed three times with PBST. The bound biotinylated BACE1 substrates were detected by incubation with streptavidin-horseradish peroxidase (Str-HRP, 125 mU/ml in blocking buffer) for 2 h at RT. Color reaction was carried out with 50 μl of 3,3′,5,5′-Tetramethylbenzidine Liquid Substrate (Sigma-Aldrich, MO, USA). After stopping the reaction by addition of an equal volume of 1 N HCl, absorbance at 450 nm was read in an automated ELISA reader (EL 312e, Bio-Tek Instruments, VT, USA). All assays were carried out in duplicate.
It was investigated if HC peptide would show specificity for APP in terms of the inhibition of cleavage by BACE1. ST6Gal1 is also cleaved by BACE1. For this experiment, 19 amino acid region (DYEALTL/QAKEFQMPKSQE) that contains the β-cleavage site for investigation was chosen. The 19 amino acid peptide was designated as Sub-ST6Gal1. […]

[3] = tested on: cleavage of Substrate M by rhBACE (recombinant human β-secretase); experiment: Fluorometric (FRET) assay for cleavage of F-Substrate M by β-secretase; assay type: biochemical; conditions: tested at various concentrations (FIG. 8)
Excerpt: This assay system utilizes fluorescence resonance energy transfer (FRET) technology. Substrate M was synthesized with two fluorophores, a fluorescent donor and a proprietary quenching acceptor (purchased from a commercial source, R&D Systems). […] Upon cleavage of substrate by β-secretase, the fluorophore is separated from the quenching group, restoring the full fluorescence yield of donor.
Substrate labeled with fluorophores will be called F-Substrate M (R&D Systems). Recombinant human β-secretase will be called rhBACE (recombinant human β-site APP cleavage enzyme) (purchased from R&D systems).
[…] Cleavage by rhBACE was detected by reading emitted fluorescence level.
In this assay system, fluorescence resonance energy transfer (FRET) technology was utilized. […] After pre-incubation, substrate and HC peptide mixture in assay buffer was transferred to FluoroNunc™ 96 well white plate (Nunc, Roskilde, Denmark), and rhBACE1 (70 nM) was added. Time-dependent emission of fluorescence (excitation at 320 nm, emission at 405 nm) was monitored in a Molecular Devices SpectraMax Gemini EM fluorescence reader (CA, USA) for 1 h at 37° C. All assays were carried out in duplicate.

[4] = target: T2, cleavage of Sub-ST6Gal1 by rhBACE1 (Rattus norvegicus, UniProt P13721); experiment: HPLC analysis of cleavage of ST6Gal1 substrate by β-secretase; assay type: biochemical, human; conditions: up to 10 inhibitor/substrate ratio; Sub-ST6Gal1 50 μM, 500 nM rhBACE1
T2 construct: Sub-ST6Gal1 (50 μM, DYEALTLQAKEFQMPKSQE) peptide corresponding to the β-cleavage site of ST6Gal1; purchased R&D Systems (enzyme); A&Pep Co., Inc. (non-labelled peptides)
Excerpt: One of the advantages of the APP inhibitor described in the present invention is that it is a peptide or a mimetic that bind to the β-secretase cleavage site of APP, thus not affecting other β-secretase substrates. To confirm the specificity of the inventive APP inhibitor, two different types of substrates were used, APP Sub M and ST6Gal1. Both substrates are cleaved by β-secretase under normal conditions and the effect of the inventive APP inhibitor on the substrate cleavage was monitored by HPLC (See the schematic diagram in FIG. 16.) To carry out these experiments, the concentration of β-secretase required for cleavage of both substrates was determined as shown in FIG. 17. For substantial cleavage of ST6Gal1 substrate, 420 nM of the enzyme was required. Therefore, 420 nM of β-secretase was used for the following experiment.
Various concentrations of HC peptide were preincubated with either Sub M (50 μM) or Sub-ST6Gal1 (50 μM, DYEALTLQAKEFQMPKSQE) peptide corresponding to the β-cleavage site of ST6Gal1 for 2 h at RT. The mixtures containing Sub M was treated with 50 nM of rhBACE1 and that containing Sub-ST6Gal1 was treated with 500 nM enzyme for 12 h at RT. Roughly 50% of each BACE1 substrate was cleaved in the absence of HC peptide. The cleavage products were separated on a C18 reversed-phase HPLC column as described above.

[5] = tested on: APP processing in HEK293-APP cells; experiment: Cell based assay of APP processing (βCTF, Western blot) in HEK293-APP cells; parameters: species or system human; conditions: βCTF
Description: In the neuronal cells of the brain, APP is processed by α-secretase or β-secretase. To investigate the effects of the inhibitors on the cell, a cell based assay system was developed as described in FIG. 10. C-terminal fragment of APP remaining on the cell membrane was detected by Western blot. The resulting C-terminal fragments, αCTF or βCTF are further processed by γ-secretase. However, if the cells are treated with the γ-secretase inhibitor, this processing is blocked. As a result, αCTF or βCTF accumulate in the cell. If β-secretase inhibitor or APP inhibitor is added, this processing is blocked and βCTF disappears.
To test APP inhibitor activities in cells, three complementary peptides, c-Sub M, c-Sub MΔC6, and c-Sub MΔN1C1, which show high absorbance in binding test, were added to whole cell extracts of HEK293-APP cells (Lanes 2, 3, and 4 in FIG. 11). In addition, γ-secretase inhibitor and cholesterol were added to the cells to increase βCTF level. Commercially available peptide-based β-secretase inhibitor was included as control (Lane 6, FIG. 11). To detect the N-terminal fragment of β-amyloid which is a product of APP processing, 6E10 antibody was employed. […] Recently, it has been reported that the commercially available peptide-based inhibitor had to be linked to an oligoarginine transporter peptide to have inhibitory activity against cells. Therefore, mimetic approach is adopted to produce cell permeable analogs. (Chang et al. J. Neurochemistry 2004; 89:1409-1416).
After confirming the ability of the oligo-arginine coupled APP inhibitors to enter the cells, the inhibitors were applied to HEK293-APP cells overexpressing APP to test their inhibitory activities on APP processing. […] This inhibitor started to show significant inhibitory activity beginning from 0.1 μM (lower panel).

[6] = tested on: γ-secretase (membrane fractions of N2a cells); experiment: γ-Secretase activity assay on membrane fractions of N2a cells; assay type: biochemical, mouse; conditions: 200 μM peptide, 12.5 μM fluorogenic substrate, 1 hour preincubation
Description: Since γ-secretase is composed of four components, cloning of γ-secretase gene is impossible. Therefore, cell extracts were used as γ-secretase source. To obtain the cell extracts, after cell lysis with extraction buffer, the lysate was centrifuged at 10,000×g for 1 minute. Afterward, 2× reaction buffer and fluorogenic substrate was mixed and added to the cell lysate. Then, this mixture was incubated at 37° C. and γ-secretase activity was detected at excitation 335 to 355 nm and emission 495 to 510 nm.
γ-Secretase activity assay was performed on membrane fractions of N2a cells in the presence of several complementary peptides. After 12.5 μM fluorogenic substrate and 200 μM each of the complementary peptides were preincubated for 1 hour, γ-secretase was added to the mixture. In the course of time, the fluorogenic substrate was cleaved by the γ-secretase.

C[C@H](NC(=O)Cc1cc(F)cc(F)c1)C(=O)N[C@H](C(=O)OC(C)(C)C)c1ccccc1 [DAPT, N-[N-(3,5-difluorophenacetyl)-L-alanyl]-(S)-phenylglycine t-butyl ester] was tested, and the “inhibition of γ-secretase activity in cells” value [1] was “inhibits γ-secretase activity very effectively”.

With EFCIQIHF [c-Sub M ΔN1C1] the “binding of bio-Sub-ST6Gal1” value [2] was “also bound”, the “inhibitory activity group on Substrate M cleavage” value [3] was “most active” and the “inhibition of cleavage of Sub-ST6Gal1” value [4] was “about 10%”. For the same molecule, the “inhibitory activity on APP processing” value [5] was “none of the inhibitors tested showed inhibitory activity”.

With PQQYRCHRQR [rCh2 (3′→5′)] the “inhibitory effect on γ-secretase activity” value [6] was “about 80%”.
